What all share (design): scale not given: the % may be the effect or the level left
The target of assay [1] is T1, Testis-specific serine/threonine-protein kinase 1 (Homo sapiens) (UniProt Q9BXA7).
T1 sequence (whole entry): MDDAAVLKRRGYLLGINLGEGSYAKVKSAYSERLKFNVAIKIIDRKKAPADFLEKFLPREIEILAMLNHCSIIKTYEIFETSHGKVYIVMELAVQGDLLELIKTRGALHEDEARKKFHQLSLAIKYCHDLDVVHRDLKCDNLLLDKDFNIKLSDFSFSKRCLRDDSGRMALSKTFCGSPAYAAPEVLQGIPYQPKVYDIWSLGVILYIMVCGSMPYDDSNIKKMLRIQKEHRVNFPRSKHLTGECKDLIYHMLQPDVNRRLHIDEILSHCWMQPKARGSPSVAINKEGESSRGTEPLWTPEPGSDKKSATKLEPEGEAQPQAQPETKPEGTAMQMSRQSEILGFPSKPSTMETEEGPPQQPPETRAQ
Kind of assay: Inhibition of human STK22D assessed as enzyme activity at 1 uM using KKKVSRSGLYRSPSMPENLNRPR as substrate preincubated for 20 mins followed by [gamma-33P]-ATP addition and measured after 120 mins by radiometric Hot-SpotSM Kinase assay relative to control.

The target in assay [2] is Leukocyte tyrosine kinase receptor (Homo sapiens) (UniProt P29376). Kind of assay: Inhibition of human TYK1/LTK assessed as enzyme activity at 1 uM using EAIYAAPFAKKK as substrate preincubated for 20 mins followed by [gamma-33P]-ATP addition and measured after 120 mins by radiometric Hot-SpotSM Kinase assay relative to control.
Assay [3] addresses Casein kinase I isoform gamma-2 (Homo sapiens) (UniProt P78368). In words: Inhibition of human CK1g2 assessed as enzyme activity at 1 uM using KRRRAL[pS]VASLPGL as substrate preincubated for 20 mins followed by [gamma-33P]-ATP addition and measured after 120 mins by radiometric Hot-SpotSM Kinase assay relative to control.
The target in assay [4] is T2, Ephrin type-B receptor 2 (Homo sapiens) (UniProt P29323).
T2 sequence (whole entry): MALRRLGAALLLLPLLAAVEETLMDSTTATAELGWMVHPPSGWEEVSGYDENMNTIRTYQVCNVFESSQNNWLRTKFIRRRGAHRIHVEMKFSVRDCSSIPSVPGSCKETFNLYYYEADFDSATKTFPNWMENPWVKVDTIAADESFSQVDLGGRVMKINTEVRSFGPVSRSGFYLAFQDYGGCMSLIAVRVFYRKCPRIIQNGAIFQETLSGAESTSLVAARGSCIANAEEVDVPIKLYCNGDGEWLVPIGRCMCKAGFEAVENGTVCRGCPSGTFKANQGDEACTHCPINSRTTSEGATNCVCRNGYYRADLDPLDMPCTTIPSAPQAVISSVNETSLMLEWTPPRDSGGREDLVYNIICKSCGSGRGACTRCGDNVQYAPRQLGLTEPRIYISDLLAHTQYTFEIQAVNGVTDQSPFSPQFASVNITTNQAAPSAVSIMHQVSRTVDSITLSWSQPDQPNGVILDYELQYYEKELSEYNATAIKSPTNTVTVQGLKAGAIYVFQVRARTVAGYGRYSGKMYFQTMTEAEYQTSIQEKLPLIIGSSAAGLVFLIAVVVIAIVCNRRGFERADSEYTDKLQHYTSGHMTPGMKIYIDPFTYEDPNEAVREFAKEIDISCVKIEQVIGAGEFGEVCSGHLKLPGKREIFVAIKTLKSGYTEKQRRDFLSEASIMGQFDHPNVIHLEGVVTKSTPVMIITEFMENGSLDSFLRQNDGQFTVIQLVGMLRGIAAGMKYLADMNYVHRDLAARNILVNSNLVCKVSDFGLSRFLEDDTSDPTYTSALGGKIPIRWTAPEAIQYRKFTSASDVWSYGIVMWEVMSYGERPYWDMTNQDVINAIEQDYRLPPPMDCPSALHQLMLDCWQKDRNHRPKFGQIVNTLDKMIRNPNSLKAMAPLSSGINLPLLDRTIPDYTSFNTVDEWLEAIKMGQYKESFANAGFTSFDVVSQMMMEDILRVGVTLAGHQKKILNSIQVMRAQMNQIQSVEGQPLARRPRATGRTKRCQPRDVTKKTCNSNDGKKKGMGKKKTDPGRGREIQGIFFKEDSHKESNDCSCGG
Kind of assay: Inhibition of human EPHB2 assessed as enzyme activity at 1 uM using poly[Glu:Tyr] (4:1) as substrate preincubated for 20 mins followed by [gamma-33P]-ATP addition and measured after 120 mins by radiometric Hot-SpotSM Kinase assay relative to control.

For assay [5], the target named is T3, Beta-adrenergic receptor kinase 1 (Homo sapiens) (UniProt P25098).
T3 sequence (whole entry): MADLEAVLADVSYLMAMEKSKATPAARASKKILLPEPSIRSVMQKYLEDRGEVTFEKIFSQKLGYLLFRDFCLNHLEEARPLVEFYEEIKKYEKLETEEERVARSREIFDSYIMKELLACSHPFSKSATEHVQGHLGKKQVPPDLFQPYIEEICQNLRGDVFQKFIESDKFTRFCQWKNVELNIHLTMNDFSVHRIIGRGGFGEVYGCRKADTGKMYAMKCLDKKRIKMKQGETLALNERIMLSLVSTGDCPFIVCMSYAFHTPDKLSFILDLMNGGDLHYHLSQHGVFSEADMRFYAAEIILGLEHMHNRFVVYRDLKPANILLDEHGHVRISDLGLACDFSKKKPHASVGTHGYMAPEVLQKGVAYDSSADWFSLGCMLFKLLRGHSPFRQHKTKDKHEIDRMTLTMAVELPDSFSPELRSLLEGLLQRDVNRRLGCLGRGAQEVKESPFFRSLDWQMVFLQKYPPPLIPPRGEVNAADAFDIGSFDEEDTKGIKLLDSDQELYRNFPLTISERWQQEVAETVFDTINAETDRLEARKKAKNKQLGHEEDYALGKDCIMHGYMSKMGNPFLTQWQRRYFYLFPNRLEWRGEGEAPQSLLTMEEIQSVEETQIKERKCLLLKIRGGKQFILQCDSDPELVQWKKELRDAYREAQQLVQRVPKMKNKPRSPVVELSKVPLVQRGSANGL
In words: Inhibition of human GRK2 assessed as enzyme activity at 1 uM using casein as substrate preincubated for 20 mins followed by [gamma-33P]-ATP addition and measured after 120 mins by radiometric Hot-SpotSM Kinase assay relative to control.

Assay [6] deals with Tyrosine-protein kinase receptor UFO (Homo sapiens) (UniProt P30530). In words: Inhibition of human AXL assessed as enzyme activity at 1 uM using poly[Glu:Tyr] (4:1) as substrate preincubated for 20 mins followed by [gamma-33P]-ATP addition and measured after 120 mins by radiometric Hot-SpotSM Kinase assay relative to control.
Assay [7] has as its target TGF-beta receptor type-2 (Homo sapiens) (UniProt P37173). In words: Inhibition of human TGFBR2 assessed as enzyme activity at 1 uM using myelin basic protein as substrate preincubated for 20 mins followed by [gamma-33P]-ATP addition and measured after 120 mins by radiometric Hot-SpotSM Kinase assay relative to control.

Molecules are shown by their SMILES.

Chain of TGF-beta receptor type-2 (Homo sapiens) (P37173 whole entry): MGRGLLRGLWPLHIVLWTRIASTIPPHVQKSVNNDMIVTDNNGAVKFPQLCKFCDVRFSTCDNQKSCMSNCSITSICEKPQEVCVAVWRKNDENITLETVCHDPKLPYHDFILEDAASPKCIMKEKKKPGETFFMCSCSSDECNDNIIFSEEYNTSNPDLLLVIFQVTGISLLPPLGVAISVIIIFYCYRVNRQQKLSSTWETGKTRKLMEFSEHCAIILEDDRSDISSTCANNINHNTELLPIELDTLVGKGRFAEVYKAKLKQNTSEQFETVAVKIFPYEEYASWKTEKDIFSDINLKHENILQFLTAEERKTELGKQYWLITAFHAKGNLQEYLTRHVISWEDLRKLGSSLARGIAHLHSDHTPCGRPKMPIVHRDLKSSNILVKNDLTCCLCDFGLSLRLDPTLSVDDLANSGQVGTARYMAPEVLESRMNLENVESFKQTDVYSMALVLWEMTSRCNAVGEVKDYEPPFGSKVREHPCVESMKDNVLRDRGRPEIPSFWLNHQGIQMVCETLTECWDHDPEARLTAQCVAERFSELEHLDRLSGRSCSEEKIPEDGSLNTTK
Chain of Casein kinase I isoform gamma-2 (Homo sapiens) (P78368 whole entry, looked up, canonical isoform): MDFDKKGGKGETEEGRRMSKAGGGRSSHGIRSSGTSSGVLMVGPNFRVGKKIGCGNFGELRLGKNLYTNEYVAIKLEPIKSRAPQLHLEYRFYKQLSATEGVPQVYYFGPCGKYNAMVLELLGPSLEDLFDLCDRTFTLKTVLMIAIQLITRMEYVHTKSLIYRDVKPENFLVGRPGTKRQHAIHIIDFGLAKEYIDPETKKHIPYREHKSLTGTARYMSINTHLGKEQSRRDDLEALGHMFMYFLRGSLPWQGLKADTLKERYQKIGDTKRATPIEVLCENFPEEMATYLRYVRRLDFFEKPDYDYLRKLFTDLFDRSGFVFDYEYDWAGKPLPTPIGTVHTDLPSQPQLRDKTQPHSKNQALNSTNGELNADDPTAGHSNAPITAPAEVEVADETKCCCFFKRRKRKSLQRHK
Chain of Tyrosine-protein kinase receptor UFO (Homo sapiens) (P30530 whole entry): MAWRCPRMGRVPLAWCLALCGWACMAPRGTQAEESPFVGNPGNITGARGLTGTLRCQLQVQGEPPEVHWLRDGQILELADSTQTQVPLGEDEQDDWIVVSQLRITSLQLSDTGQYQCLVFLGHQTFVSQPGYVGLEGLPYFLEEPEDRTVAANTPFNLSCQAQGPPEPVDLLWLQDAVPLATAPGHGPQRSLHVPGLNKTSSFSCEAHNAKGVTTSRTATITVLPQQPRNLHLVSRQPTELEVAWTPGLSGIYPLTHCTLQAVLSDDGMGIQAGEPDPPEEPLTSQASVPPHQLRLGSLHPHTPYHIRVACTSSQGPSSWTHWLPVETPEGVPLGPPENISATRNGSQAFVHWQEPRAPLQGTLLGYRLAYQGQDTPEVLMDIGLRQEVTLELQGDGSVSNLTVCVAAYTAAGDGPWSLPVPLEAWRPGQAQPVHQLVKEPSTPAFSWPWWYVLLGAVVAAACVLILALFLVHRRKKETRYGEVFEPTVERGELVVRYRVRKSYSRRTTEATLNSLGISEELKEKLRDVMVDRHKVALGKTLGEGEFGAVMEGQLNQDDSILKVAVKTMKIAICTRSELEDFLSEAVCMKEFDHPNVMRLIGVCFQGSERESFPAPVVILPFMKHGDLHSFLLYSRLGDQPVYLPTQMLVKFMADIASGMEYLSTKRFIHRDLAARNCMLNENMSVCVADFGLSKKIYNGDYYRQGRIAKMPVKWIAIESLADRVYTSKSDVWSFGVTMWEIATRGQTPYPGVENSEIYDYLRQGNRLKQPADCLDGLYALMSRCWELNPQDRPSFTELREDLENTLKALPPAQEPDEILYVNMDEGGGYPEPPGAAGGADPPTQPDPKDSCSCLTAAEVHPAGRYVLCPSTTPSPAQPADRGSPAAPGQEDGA
Chain of Leukocyte tyrosine kinase receptor (Homo sapiens) (P29376 whole entry, canonical isoform): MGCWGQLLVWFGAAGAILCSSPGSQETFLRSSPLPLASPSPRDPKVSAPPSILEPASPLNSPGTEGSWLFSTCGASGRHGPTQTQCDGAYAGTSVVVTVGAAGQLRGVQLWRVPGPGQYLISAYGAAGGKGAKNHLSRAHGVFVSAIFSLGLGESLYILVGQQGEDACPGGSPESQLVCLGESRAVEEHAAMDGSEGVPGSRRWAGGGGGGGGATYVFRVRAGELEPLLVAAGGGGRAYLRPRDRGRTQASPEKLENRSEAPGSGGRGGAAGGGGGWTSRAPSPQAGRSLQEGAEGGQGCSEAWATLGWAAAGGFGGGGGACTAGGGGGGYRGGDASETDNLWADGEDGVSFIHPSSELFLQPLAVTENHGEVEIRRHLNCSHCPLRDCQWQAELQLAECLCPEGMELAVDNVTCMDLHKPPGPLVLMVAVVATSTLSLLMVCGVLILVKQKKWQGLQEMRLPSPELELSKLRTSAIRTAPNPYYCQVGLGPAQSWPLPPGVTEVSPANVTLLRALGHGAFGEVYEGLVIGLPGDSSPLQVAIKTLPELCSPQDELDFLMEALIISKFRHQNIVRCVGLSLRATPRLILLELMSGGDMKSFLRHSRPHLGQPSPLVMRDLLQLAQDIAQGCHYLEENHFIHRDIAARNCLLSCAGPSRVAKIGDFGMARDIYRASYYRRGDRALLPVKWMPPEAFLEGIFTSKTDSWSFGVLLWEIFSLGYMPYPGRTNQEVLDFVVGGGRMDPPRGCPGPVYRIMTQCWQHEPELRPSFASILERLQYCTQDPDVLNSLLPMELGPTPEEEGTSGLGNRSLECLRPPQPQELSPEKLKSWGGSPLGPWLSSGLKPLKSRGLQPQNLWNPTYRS

In the case of `C[C@H](Nc1ncnc2nc[nH]c12)c1cc2cccc(Cl)c2c(=O)n1-c1ccccc1`, the Activity in assay [1] stood at 93.9%; in assay [2], 97.4%; in assay [3], 98.5%; in assay [4], 92%; in assay [5], 94.2%; in assay [6], 93.9%. In addition, the Activity in assay [7] came to 114%.
As to `CC[C@H](Nc1ncnc2[nH]cnc12)c1nc2cccc(F)c2c(=O)n1-c1ccccc1`, the Activity in assay [1] worked out at 98%; in assay [2], 94.8%; in assay [3], 99.7%; in assay [4] it was 91.9%; in assay [5], 93.9%; in assay [6] it was 93.5%. Also, the Activity in assay [7] is 110%.
Consider `CC(C)Oc1ccc(-c2nn([C@@H](C)c3oc4ccc(F)cc4c(=O)c3-c3cccc(F)c3)c3ncnc(N)c23)cc1F` [UMBRALISIB], for which the Activity in assay [1] is 95.5%; in assay [2], 92.5%; in assay [3], 104%; in assay [4] it was 95.9%; in assay [5], 94.5%; in assay [6], 91.2%. The Activity in assay [7] amounted to 97.4%.

The record behind these values is ChEMBL document CHEMBL5715954, “Silencing c-Myc translation as a therapeutic strategy through targeting PI3Kδ and CK1ε in hematological malignancies” (Blood, 2017).
